Data taken from US7422883B2, “Map kinase integrin-binding domain” (Inter-K Pty Limited, priority 2000, dated 2008).
No end group written: not given here.

How the values were obtained:
HT29 colon cancer cells = assay: WST-1 growth inhibition study, HT29; format: cell-based, human; details: HT29, 10 μm, 24 hours, serum-free; FIG. 28
Description: (§1) HT29 and SW480 β6-expressing colon cancer cell lines were seeded into wells of 96-well microtitre plates (Nunclon) in Dulbecco's Modified Eagle's Medium (DMEM) supplemented with 10% foetal bovine serum, glutamine, Hepes, and antibiotics. […] The cell proliferation reagent WST-1 is designed to be used for the non-radioactive, spectrophotometric quantification of cell growth and viability in proliferation and chemosensitivity assays. […]
(§2) Specifically, at the termination of experiments, 30 μl of WST-1 was added to 270 μl culture medium volume in each microtitre well and the colour change quantitated in an ELISA plate reader by measuring absorbance of the formazan product at […] (using a reference wavelength of more than 600 nm). The mean absorbance readings from triplicate wells (±standard error of the means) after subtraction of background control wells (culture medium without cells) was determined.

SW480 cells = assay: In vitro wound assay (cell migration); format: cell-based, human; details: SW480 lacking αvβ6, 1.25-10 μM, 48 hours, 1% foetal calf serum; FIG. 40
Description: The wound assay was performed by seeding 2×10^5 cells into 24 well (1.6 cm diameter) tissue culture plates in Dulbecco's modified Eagles medium (DMEM) supplemented by 10% foetal calf serum, HEPES, glutamine and antibiotics. The confluent cell monolayers were streaked with the tip of a plastic pipette in a cross-wire fashion, and loose non-adherent cells washed off gently with medium before replacing the culture medium with DMEM supplemented with 1% foetal calf serum. In addition, RSKAKWQTGTNPLYR (SEQ ID NO: 7) peptide ligated to penetratin (carrier peptide) by means of cysteine Cys (Npys) bonding was added to each well at a final concentration in the range of 1.25-10 μM. Cell migration across the wounded (streaked) area was photographed (Techpan, Kodachrome, ASA100) after a further 48 hours in culture. […] The conditions utilised in the assay were as follows: A: no peptide-penetratin complex added, B: 2.5 μM peptide-penetratin complex added, C: 5 μM peptide-penetratin complex added, D: 10 μM peptide-penetratin complex added.

SW480 β6 transfectants = assay: WST-1 growth inhibition, SW480 β6-expressing cells; format: cell-based, human; details: 30 μm, 24 hours, serum-free, FIG. 29
Description: as §1, §2
[…] Percentage inhibition was assessed by the WST-1 colorimetric dehydrogenase assay described in Example 6. […]

ERK2 = target: T1, ERK2 (Mus musculus, UniProt P63085); assay: ELISA of ERK2 binding to biotinylated integrin cytoplasmic domain peptides
T1 construct: GST (glutathione-S-transferase); made in house
T1 sequence (P63085 whole entry, the tested form may be a part): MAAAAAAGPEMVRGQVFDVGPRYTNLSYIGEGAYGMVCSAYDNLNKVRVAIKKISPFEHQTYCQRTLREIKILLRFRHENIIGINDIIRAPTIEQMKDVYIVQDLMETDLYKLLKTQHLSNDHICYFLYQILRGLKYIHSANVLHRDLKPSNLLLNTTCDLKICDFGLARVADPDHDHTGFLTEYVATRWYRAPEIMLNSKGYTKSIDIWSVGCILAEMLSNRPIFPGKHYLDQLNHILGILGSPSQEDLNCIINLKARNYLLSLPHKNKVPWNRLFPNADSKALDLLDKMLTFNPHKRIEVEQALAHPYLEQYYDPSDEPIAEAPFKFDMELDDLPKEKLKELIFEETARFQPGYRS
Description: Peptide fragments corresponding to regions of the cytoplasmic tail domain of the β6 subunit were screened in an enzyme-linked immunosorbent assay (ELISA) for binding with ERK2. The 52 amino acid long β6 cytoplasmic tail is shown in FIG. 16 as are the amino acid sequences for the cytoplasmic domains of the β1 to β3 subunits. In particular, four synthetic peptides designated fragment 1 to fragment 4 were prepared and biotinylated at the N-terminal end of each, respectively (Auspep Pty Ltd, Melbourne Australia).
Overlapping biotinylated fragments 1 to 4 were coated onto streptavidin coated polystyrene plates (Pierce, Rockford Ill. USA, Cat No. 15125) and the ELISA performed substantially according to manufacturers instructions. Briefly, wells are washed with 3×200 μl of wash buffer (TBS, 0.1% BSA, 0.05% Tween 20 or SuperBlock™ blocking buffer in TBS, Pierce, Prod. No. 37535) prior to addition of biotinylated peptides (100 μl) and incubation for 1 hr at room temperature to allow for capture of the peptides on the plate. Following another washing step, peptides were overlayed with GST-ERK, ERK (or JNK-1) alone at a volume of 100 μl per well, and the plates incubated for a further 1 hr at room temperature before removal of any unbound ERK by further washing.
Binding of ERK to the peptides is detected using 100 μl anti-ERK1/2 mAb SC1647 (Santa Cruz) as the primary antibody at a dilution of 1:700 (isotype matched antibody IgG2b is used as a control). This is followed by another washing step and addition of 100 μl rabbit anti-mouse antibody (Biorad) conjugated to alkaline phosphatase at a concentration of 1:1000 for 30 minutes again at room temperature. A […] of detection reagent (alkaline phosphatase detection kit-Biorad) is then introduced into each well after a final washing step and allowed to react for 15-30 minutes at room temperature in the dark before absorbance is measured at 405 nm. All dilutions of peptides, MAP kinase and antibodies were performed using the wash buffer. GST-ERK is a fusion protein consisting of ERK coupled to glutathione-S-transferase and purified from host cells transfected with pGEX vector.
To further localise the binding domain on the cytoplasmic tail of the β6 subunit, progressively shorter peptides from the region of the β6 cytoplasmic tail corresponding to peptide fragment 2 were synthesised, biotinylated and the capacity to associate or otherwise bind to ERK2 assessed as described above. The binding of GST.ERK2 to a 15 mer test peptide (seq. 4) having the amino acid sequence RSKAKWQTGTNPLYR (SEQ ID NO: 7) and a 10 mer test peptide having the sequence RSKAKWQTGT (SEQ ID NO: 21) is shown in FIG. 20 compared to fragment 2 over a range of concentrations of the peptides. […] 4 peptide compared to fragment 2 was found. Binding of ERK2 to the seq. 3 peptide was substantially less than that observed for seq. 4.
Binding of ERK2 to the seq.4 peptide (RSKAKWQTGTNPLYR) (SEQ ID NO: 7) was compared with peptides corresponding to regions of the cytoplasmic domain of integrin subunits β1, β2, β3 and β5. The amino acid sequences for those peptides is shown below:
To evaluate this, cell lysates containing equal protein loads were prepared from SW480 wild-type cells and SW480 cells transfected with either vector alone (mock transfectants), wild type β6 or the β6 deletion mutant Δ746-764 (lacking the sequence EAERSKAKWQTGTNPLYRG (SEQ ID NO: 26), Cone et al, 1994). The lysates were immunoprecipitated with mAbs R6G9 (anti-β6), P1F6 (anti-β5) or murine IgG control antibody (mlgG). […] To determine whether β5 can bind ERK2 in vitro, a 15-mer peptide fragment derived from the β5 cytoplasmic domain corresponding to the ERK binding domain on β6 was tested for its ability to bind ERK2 in an ELISA.

Sequence: RSKAKWQTGTNPLYR (also: biotinylated, site not given here) [seq. 4, 15 mer fragment of the β6 cytoplasmic domain]
- inhibition of cell proliferation (WST-1) (HT29 colon cancer cells): Only the carrier penetratin-peptide complex was effective in inhibiting cell proliferation in contrast to either peptide or penetratin alone
- cell migration across wounded area (wound repair) (SW480 cells): not stimulated
- inhibition of cell proliferation (WST-1) (SW480 β6 transfectants): Only the carrier penetratin-peptide complex was effective in inhibiting cell proliferation in contrast to either peptide or penetratin alone
- binding of ERK2 to integrin subunit peptides (ERK2; corrected for non-specific binding, FIG. 34): significant binding
- binding of GST.ERK2 to peptide (ERK2; over a range of concentrations of the peptides, compared to fragment 2, FIG. 20): no reduction in binding
